# Results from the METLIN SMRT retention time set (Domingo-Almenara et al. 2019).
# Test: gradient 5% acetonitrile 3 min, to 50% in 2 min, to 85% in 15 min, held 3 min, 100 µL/min
# Conditions: column: Zorbax Extend-C18 2.1 x 50 mm; eluents: water / acetonitrile, 0.1% formic acid
# How it was run: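 In both positive and negative ionization mode, a quadrupole time-of-flight mass spectrometer coupled to HPLC analyzed pure standards run in mixtures of ~100 molecules. The Zorbax Extend-C18 column (2.1 × 50 mm, 1.8 μm) was operated at 100 μL/min with water and acetonitrile, each containing 0.1% formic acid. The dead volume was 40 μL and the dwell volume 900 μL. Retention time came from adduct peaks that were computationally picked and individually inspected by hand.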
row,RP-LC retention time [s],SMILES
1,660,O=C(Nc1cccc(F)c1)N1C[C@H]2C[C@H](C1)[C@H]1CCCC(=O)N1C2
2,654,O=C(Nc1ccc(S(=O)(=O)N2CCCCC2c2cccnc2)cc1)C1CCCCC1 (stereo not drawn)
3,706,CC(C)CN(Cc1ccc(F)cc1)Cc1cc(=O)n2cc(Cl)ccc2n1
4,743,Cc1cccc(NC(=O)Cn2c(-c3cnccn3)nc(C)c(C)c2=O)c1C
5,1230,CCc1ccc(CNC(=O)C2CCCN(c3nc4c(s3)c(C)nn4-c3ccccc3)C2)cc1 (stereo not drawn)
6,746,CN1CC(=O)N(CC(=O)N2CCN(c3ccc(Cl)cc3)CC2)c2ccccc2C1=O
7,947,COc1ccccc1OCC1c2ccsc2CCN1C(=O)CN(CC1CC1)C(=O)C(C)C (stereo not drawn)
8,692,COc1ccc(-c2nc3ccc(C)cn3c2Nc2ccc3c(c2)OCCO3)cc1
9,819,Cc1ccc2[nH]cc(CCN3CC(C(=O)NC4CCCCC4)CC3=O)c2c1 (stereo not drawn)
10,788,CCCn1cc(CCNC(=O)c2ccc(F)cc2Cl)c2cccnc21
11,994,Cc1cccc(NC(=O)Nc2ccc3c(c2)CCN3S(=O)(=O)c2ccccc2)c1
12,600,O=C(c1ccccc1Cl)N1CCN(c2nc(CN3CCOCC3)cs2)CC1
13,972,O=C(Nc1cccc(Cl)c1F)c1cnc(-c2ccc(F)cc2)nc1-c1ccncc1
14,1150,O=C(Cn1nc(N2CCCCCC2)c2ccccc2c1=O)Nc1ccc(F)c(F)c1
15,646,COc1ccc(-c2nnc(-c3ccc(C)c(S(=O)(=O)N4CCN(C)CC4)c3)o2)cc1OC
16,1000,COc1ccc(Br)c(C(=O)N2CC(c3nc(-c4cccc(Cl)c4)no3)C2)c1
17,731,CNC(=O)C1CCCN(c2nc3ncn(CC(=O)Nc4ccc(C(C)C)cc4)c(=O)c3s2)C1 (stereo not drawn)
18,877,Cc1nc2ccc3nc(NC(=O)COc4ccccc4F)sc3c2s1
19,980,COC(=O)c1cccc(Nc2c(-c3ccc(F)cc3)nc3cnc(Br)cn23)c1
20,739,CCc1cc(C(=O)NCC2CCCO2)nc2cc(-c3ccccn3)nn12 (stereo not drawn)
21,731,CC(C)C(=O)Nc1ccc(CCc2nc3ccc(C(=O)NCCC4=CCCCC4)cc3[nH]2)cc1
22,636,O=C(NC1CC1)c1n[nH]c2c1CCCC2

row,RP-LC retention time [s],SMILES
1,580,Cc1ccccc1N1C(=O)CC(N2CCC(C(N)=O)CC2)C1=O (stereo not drawn)
2,1130,COC(=O)c1c(NC(=O)c2ccc([N+](=O)[O-])o2)sc(Cc2ccc3c(c2)OCO3)c1C
3,605,O=C(CCCc1ccccc1)NCC(=O)N1CCN(c2ccccn2)CC1
4,680,O=C(Nc1ccccc1C(F)(F)F)N1CCCC(Cn2cnc3cccnc32)C1 (stereo not drawn)
5,907,COc1ccc(N2CCN(C(=O)Cn3cccc3-c3nnc(-c4ccccc4)o3)CC2)cc1
6,877,c1ccc(-n2ncc3c(NCc4ccc5c(c4)OCO5)ncnc32)cc1
7,754,OC(c1cc(C(F)(F)F)nc2c(C(F)(F)F)cccc12)C1CCCCN1 (stereo not drawn)
8,702,N#CCn1nc2n(c1=O)CCN(S(=O)(=O)c1cccc3cccnc13)CC2
9,1200,Cc1ccc(NC(=O)c2cc(C(C)C)n3nccc3n2)c(C)c1
10,728,CN1c2ccccc2C(=O)NC12CCN(C(=O)NCCc1ccccc1)CC2
11,1160,COC(=O)c1cc(C2CC2)nc2c1c(=O)n(Cc1cccc(Cl)c1)c(=O)n2C
12,612,O=C(Cc1cccc(C(F)(F)F)c1)N1CCc2nc[nH]c2C1
13,603,O=C(NCc1n[nH]c(=O)c2ccccc12)C(=O)N1CCCCC1
14,706,Cn1cc(S(=O)(=O)N2CCC(C(=O)NCc3cccs3)CC2)cc1C(=O)N1CCCC1
15,846,COC(=O)c1ccc(-c2csc(NC(=O)c3cc(C)no3)n2)cc1
16,724,O=C(Nc1cc(F)cc(F)c1)C1CCN(c2cc(N3CCCC3)ncn2)CC1
17,695,COc1ccc(CN2C(=O)c3ccccc3C2C(=O)NCC2CCCO2)c(OC)c1 (stereo not drawn)
18,822,Cc1nn(C)c(=O)c2cc(S(=O)(=O)NCc3ccc(Cl)cc3)cn12
19,694,CC(C)c1ccc2c(c1)-c1ccccc1S(=O)(=O)N2CC(=O)NCCCN1CCOCC1
20,834,CC(C)CCNC(=O)N1CCCC(C)(C(=O)NCc2ccccc2)C1 (stereo not drawn)
21,734,O=C(Nc1cccc(Cl)c1)Nc1cccc(-c2ccc3nncn3n2)c1
22,632,O=C(Cc1ccccc1F)NCC(=O)Nc1nc2ccccc2[nH]1

row,RP-LC retention time [s],SMILES
1,736,CCC(C)NC(=O)Cn1c(=O)n(CCCCC(=O)NC2CCCC2)c(=O)c2ccccc21 (stereo not drawn)
2,939,COc1cccc(CNC(=O)C2(C)CCCN(C(=O)Nc3cc(C)ccc3C)C2)c1 (stereo not drawn)
3,952,Cc1cc(-c2nnc(-c3ccccc3)o2)c(C)n1CC(=O)Nc1ccccc1F
4,616,Cc1ccccc1NC(=O)N1CC(Cc2nncn2C(C)C)C1
5,656,O=C(Cn1nc2c3cc(F)ccc3ncn2c1=O)Nc1ccccc1F
6,1040,O=C(CSc1nccc2c1ccn2Cc1ccc(F)cc1)NCc1ccco1
7,604,Cc1nc2ncc(-c3ccnc(N4CCN(Cc5ccccc5)CC4)n3)c(C)n2n1
8,622,CCN1CCCC1CNC(=O)c1nc(CCS(=O)(=O)c2ccc(OC)cc2)no1 (stereo not drawn)
9,1150,CCCc1c(OCCCOc2ccc(OCC(=O)O)cc2)ccc(C(C)=O)c1O
10,655,Cc1ccn2cc(C(=O)NCc3ccc(F)cc3F)nc2c1
11,898,CCN1CCN(C2=NCCN2C(=O)c2ccccc2Br)CC1
12,909,CCCNC(=O)Cn1c(=O)c2cnc(-c3ccc(Cl)cc3)nc2n(C)c1=O
13,818,CC1=C(c2ccc(C)cc2)S(=O)(=O)N=C1N1CCCN(C(=O)C2CCC2)CC1
14,985,C=CCN(CC=C)S(=O)(=O)c1ccc(C(=O)N2CCCc3ccccc32)cc1
15,621,Cc1ncoc1C(=O)N1CCCCCNC(=O)[C@@H]2CCC[C@@H]21
16,875,COC(=O)c1ccc2c(=O)n(-c3ccc4c(c3)OCO4)c(N3CCOCC3)nc2c1
17,848,CC(C)NC(=O)Cn1c2ccccc2c2ncn(Cc3nc(-c4ccccc4)no3)c(=O)c21
18,615,COc1ccc(N2CCN(C(=O)c3cn4ccc(C)cc4n3)CC2)cc1
19,780,Cc1ccc(-c2ncccc2CNS(=O)(=O)c2ccc(Cl)s2)cc1
20,906,COCC(=O)N(CC(=O)N1CCc2sccc2C1COc1ccc(F)cc1)C(C)(C)C (stereo not drawn)
21,802,O=C(NCc1ccc(Cl)cc1)C1CCN(C(=O)c2ncn3c2COC(c2ccccc2)C3)CC1 (stereo not drawn)
22,1170,O=C(Nc1ccc(-c2nc(-c3ccc(F)cc3)no2)cc1)c1cccs1

row,RP-LC retention time [s],SMILES
1,694,CCOC(=O)c1c(C)[nH]c(C(=O)N2CCC(CC(=O)N3CCCC3)CC2)c1C
2,680,O=C(Nc1ccc2nncn2c1)Nc1ccc(F)cc1F
3,1140,O=C(NCc1ccc(F)cc1)C1CCCN(c2nc3ccccc3n(Cc3ccccc3)c2=O)C1 (stereo not drawn)
4,596,Cc1cc(-c2nnc(-c3ccccc3)o2)c(C)n1CC(=O)Nc1ccc2c(c1)OCO2
5,592,C=CCNC(=O)N1CC(=O)Nc2ccccc21
6,771,COCCN1C(=O)CCc2cc(NS(=O)(=O)c3ccccc3Cl)ccc21
7,837,CCCn1cc(CCNS(=O)(=O)c2cccc(F)c2)c2cccnc21
8,745,NS(=O)(=O)c1ccc(NC(=O)C2(c3cc(-c4ccco4)on3)CC2)cc1
9,1100,Cc1nc2cc(-c3noc(-c4c(F)cccc4Cl)n3)ccc2o1
10,1150,Cc1ccc(-c2noc(-c3ccc(=O)n(Cc4cccc(F)c4)n3)n2)cc1
11,791,O=C(Cn1c(=O)c2cc(C3CC3)nn2c2ncccc21)NCc1ccc(Cl)cc1
12,923,CCc1ccc(Nc2nc(C(=O)NCc3ccc(C)o3)nc3ccccc23)cc1
13,837,O=C(CCSc1ccccc1)N1CCCC(c2nnc(-c3cccs3)o2)C1 (stereo not drawn)
14,1360,Cc1oc(-c2cccc(Cl)c2)nc1Cn1nnc(-c2nc(-c3cccc(F)c3)no2)c1C
15,606,CCN(CC)C(=O)C1Cn2cccc2C(=O)N1C (stereo not drawn)
16,789,CC(NC(=O)C1CCN(c2cnn(Cc3ccccc3)c(=O)c2)CC1)c1cccs1 (stereo not drawn)
17,671,COc1cc(NC(=O)CCc2c(-c3ccccc3)nc3ccccn23)cc(OC)c1
18,927,CCc1nc2ccccc2c(=O)n1Cc1noc(C2CC(=O)N(c3ccc(C)c(C)c3)C2)n1 (stereo not drawn)
19,720,CCOc1ccc(-c2cc3c(=O)n(Cc4nc(-c5ccccc5)no4)ncn3n2)cc1
20,1030,CCOc1ccc(-c2ccc(=O)n(CCc3nc(-c4ccc(SC)cc4)no3)n2)cc1
21,822,Cc1ccccc1Cn1c(CN2CCC(C(=O)NCCC(C)C)CC2)cc2ccccc21
22,681,CC(=O)c1ccc(NC(=O)N2C[C@@H]3C[C@H]2C[C@@H]3NC(=O)c2ccccc2)cc1
